The text below walks through data of patent US20090143361A1, “Pyrido[3,2-E]Pyrazines, Process For Preparing The Same, And Their Use As Inhibitors Of Phosphodiesterase 10” (ELBION GMBH, priority 2007, published 2009).

In assay [1] the target is T1, human recombinant PDE10A (Homo sapiens, UniProt Q9Y233).
T1 construct: made in house; host or cells: SF21 insect cells (baculovirus)
As to the kind of experiment: Inhibition of PDE10, human recombinant PDE10A ([3H]-cAMP SPA). To be noted: Table 7; read-out: Human PDE10 (IC50 nM). The class given is biochemical. The protocol: The gene was than inserted into a baculovirus vector, ligated with the baculovirus DNA. The enzyme-protein was expressed in SF21-cells. The enzyme was isolated from these cells by harvesting the cells by a centrifugation at 200 g to collect the cells. The cells were resuspended in 50 mM Tris-HCl/5 mM MgCl2 buffer (pH=7.4) and lysed by a sonication of the cells. The cytosolic PDE10A was obtained by a centrifugation at 48000 g for 1 h in the supernatant and stored at −70° C. PDE10 activity was determined in a one step procedure in microtiterplates. […] Nonspecific activity was tested without the enzyme. The reaction was initiated by addition of the substrate solution and was carried out at 37° C. for 30 minutes. Enzymatic activity was stopped by addition of 25 μl YSi-SPA-beads (Amersham-Pharmacia). One hour later the mixture was measured in a liquid scintillation counter for microtiterplates (Microbeta Trilux). To pipette the incubation mixture a robot Biomek (Fa. Beckman) is used. […] For determination of IC50 values the Hill-plot, 2-parameter-model, was used.

For assay [2], the target named is PDE10 from pig striatum (Sus scrofa, UniProt A0A287B941). Kind of assay: Inhibition of PDE10 from pig striatum ([3H]-cAMP SPA). The class given is biochemical.
Assay [3] deals with T2, PDE10 from rat striatum (Rattus norvegicus, UniProt Q9QYJ6).
T2 construct: from tissue; host or cells: rat (Wistar) striatum, FPLC fractions
T2 sequence (Q9QYJ6 1-794): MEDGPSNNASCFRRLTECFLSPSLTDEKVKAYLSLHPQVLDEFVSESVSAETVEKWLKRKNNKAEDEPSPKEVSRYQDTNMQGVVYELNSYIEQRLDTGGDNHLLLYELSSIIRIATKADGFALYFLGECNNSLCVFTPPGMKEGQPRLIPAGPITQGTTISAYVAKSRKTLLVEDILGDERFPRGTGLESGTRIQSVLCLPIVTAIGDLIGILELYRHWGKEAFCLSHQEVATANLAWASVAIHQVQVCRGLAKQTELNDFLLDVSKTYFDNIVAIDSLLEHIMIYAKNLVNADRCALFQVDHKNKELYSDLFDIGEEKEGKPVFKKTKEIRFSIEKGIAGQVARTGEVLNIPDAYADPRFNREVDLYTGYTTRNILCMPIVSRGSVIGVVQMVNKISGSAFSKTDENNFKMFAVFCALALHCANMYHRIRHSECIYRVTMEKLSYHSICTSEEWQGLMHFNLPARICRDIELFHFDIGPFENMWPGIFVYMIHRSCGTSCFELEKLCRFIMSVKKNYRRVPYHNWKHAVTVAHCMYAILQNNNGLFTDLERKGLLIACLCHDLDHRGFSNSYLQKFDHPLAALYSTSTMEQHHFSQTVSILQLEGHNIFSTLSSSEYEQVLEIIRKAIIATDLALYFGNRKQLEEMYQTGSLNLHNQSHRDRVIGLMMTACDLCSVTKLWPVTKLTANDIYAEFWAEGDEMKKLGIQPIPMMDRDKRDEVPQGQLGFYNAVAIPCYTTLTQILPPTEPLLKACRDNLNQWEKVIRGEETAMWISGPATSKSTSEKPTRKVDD
Kind of assay: Inhibition of PDE10 from rat striatum ([3H]-cAMP SPA). Type of assay: biochemical. The conditions noted are these: Method B, read-out: Km-value for the substrate. The protocol:
(§1) The phosphodiesterase isoenzyme 10 (PDE10) activity was determined in preparations of rat, pig and guinea pig striatum respectively. Striatum from male Wistar rats (180-200 g), male hybrid pigs (150 kg) and male guinea pigs (CRL (HA), 500 g) respectively were collected and frozen at −70° C. At the day of preparation 0.5 g striatum was homogenized in 10 ml 50 mM Tris/Mg-buffer at 4° C. and centrifuged for one hour at 100000 g. The supernatant is called the cytosolic fraction and was removed and stored on ice. The pellet was resuspended in the same buffer, but containing 1% Triton and incubated for 45 min at 4° C. Both fractions were independently applied onto a 5 ml Hi Trap™ QHP column at the Akta-FPLC. After washing the columns the bound PDE protein was eluted with an increasing sodium chloride gradient (0 mM-500 mM sodium chloride) in 50 mM Tris/Mg-buffer at 4° C. for the cytosolic fraction and in the presence of 1% Triton for the membrane fraction. […] The fractions with PDE10-activity were pooled and frozen in aliquots until use at −20° C. PDE10 activity was determined in a one step procedure in microtiterplates. […] Nonspecific activity was tested without the enzyme. […] One hour later the mixture was measured in a liquid scintillation counter for microtiterplates (Microbeta Trilux). […]

Assay [4] has as its target Phosphodiesterase (PDE) 10A (Homo sapiens, UniProt Q9Y233). To be noted: Soderling et al. 1999; cited from earlier work.
Assay [5] concerns the target PDE10 from guinea pig striatum (Cavia porcellus, UniProt A0A286XN47). Kind of assay: Inhibition of PDE10 from guinea pig striatum ([3H]-cAMP SPA). Type of assay: biochemical. To be noted: Method B. As to the method:
as §1

For assay [6] the following is noted: rats; Kostowski et al. 1976; cited from earlier work.
For assay [7] the following is noted: rats; Kostowski et al. 1976; cited from earlier work. The source holds these as a separate data set.
The conditions of assay [8]: rats; Kostowski et al. 1976; cited from earlier work. The source holds these as a separate data set.
The mark [9] stands for this setting: Table 7, read-out: PDE10 pig IC50.

Read-outs that look alike come from different tables or passages of the source.

T1 sequence (Q9Y233 1-779 isoform Q9Y233-1): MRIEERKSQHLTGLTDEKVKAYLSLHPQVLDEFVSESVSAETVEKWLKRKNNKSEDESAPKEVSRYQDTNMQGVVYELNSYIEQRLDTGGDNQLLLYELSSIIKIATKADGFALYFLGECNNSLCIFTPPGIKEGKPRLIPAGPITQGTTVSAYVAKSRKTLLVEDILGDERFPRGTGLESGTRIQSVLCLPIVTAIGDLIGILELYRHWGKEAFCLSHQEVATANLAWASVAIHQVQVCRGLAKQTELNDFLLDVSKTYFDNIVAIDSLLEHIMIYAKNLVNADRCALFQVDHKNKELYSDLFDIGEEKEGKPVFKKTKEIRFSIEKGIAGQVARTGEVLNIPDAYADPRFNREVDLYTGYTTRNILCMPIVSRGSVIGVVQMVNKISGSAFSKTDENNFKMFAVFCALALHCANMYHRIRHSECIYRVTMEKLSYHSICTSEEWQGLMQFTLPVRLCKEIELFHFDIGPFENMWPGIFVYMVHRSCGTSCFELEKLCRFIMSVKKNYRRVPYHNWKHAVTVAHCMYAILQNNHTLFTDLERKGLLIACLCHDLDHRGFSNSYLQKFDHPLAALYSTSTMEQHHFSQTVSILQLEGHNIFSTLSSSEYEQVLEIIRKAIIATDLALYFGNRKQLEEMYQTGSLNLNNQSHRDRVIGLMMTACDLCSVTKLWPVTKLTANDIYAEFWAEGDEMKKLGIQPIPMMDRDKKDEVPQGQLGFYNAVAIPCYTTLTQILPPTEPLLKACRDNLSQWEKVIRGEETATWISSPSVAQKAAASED
Phosphodiesterase (PDE) 10A, sequence (Q9Y233 whole entry): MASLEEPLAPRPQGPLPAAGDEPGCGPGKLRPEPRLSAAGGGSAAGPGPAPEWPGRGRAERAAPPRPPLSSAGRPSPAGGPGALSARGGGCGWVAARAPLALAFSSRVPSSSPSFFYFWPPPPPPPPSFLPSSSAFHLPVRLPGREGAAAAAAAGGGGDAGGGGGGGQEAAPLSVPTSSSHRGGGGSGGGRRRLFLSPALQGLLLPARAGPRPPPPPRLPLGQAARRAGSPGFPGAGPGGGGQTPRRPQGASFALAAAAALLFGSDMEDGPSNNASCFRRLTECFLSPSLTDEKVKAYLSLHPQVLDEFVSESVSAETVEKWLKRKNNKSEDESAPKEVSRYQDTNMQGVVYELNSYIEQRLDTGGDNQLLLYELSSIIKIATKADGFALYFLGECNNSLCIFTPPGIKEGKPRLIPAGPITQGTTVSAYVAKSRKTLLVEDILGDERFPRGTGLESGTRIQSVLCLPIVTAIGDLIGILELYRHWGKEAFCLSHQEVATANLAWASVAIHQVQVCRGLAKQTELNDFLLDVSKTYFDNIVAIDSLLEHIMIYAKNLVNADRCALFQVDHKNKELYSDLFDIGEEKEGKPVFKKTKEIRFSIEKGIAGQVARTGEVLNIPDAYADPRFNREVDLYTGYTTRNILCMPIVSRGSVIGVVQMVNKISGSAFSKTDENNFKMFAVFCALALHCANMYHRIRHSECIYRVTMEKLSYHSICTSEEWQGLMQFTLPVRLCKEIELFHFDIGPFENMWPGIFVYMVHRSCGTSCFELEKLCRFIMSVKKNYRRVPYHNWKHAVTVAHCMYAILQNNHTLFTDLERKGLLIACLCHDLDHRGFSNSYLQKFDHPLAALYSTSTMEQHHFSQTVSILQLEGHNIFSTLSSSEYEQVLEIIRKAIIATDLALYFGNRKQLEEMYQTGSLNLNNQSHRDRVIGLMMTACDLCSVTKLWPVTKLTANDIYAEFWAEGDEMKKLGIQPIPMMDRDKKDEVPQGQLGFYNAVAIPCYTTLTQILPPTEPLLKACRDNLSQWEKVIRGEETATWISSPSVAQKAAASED
PDE10 from guinea pig striatum, sequence (A0A286XN47 1-773): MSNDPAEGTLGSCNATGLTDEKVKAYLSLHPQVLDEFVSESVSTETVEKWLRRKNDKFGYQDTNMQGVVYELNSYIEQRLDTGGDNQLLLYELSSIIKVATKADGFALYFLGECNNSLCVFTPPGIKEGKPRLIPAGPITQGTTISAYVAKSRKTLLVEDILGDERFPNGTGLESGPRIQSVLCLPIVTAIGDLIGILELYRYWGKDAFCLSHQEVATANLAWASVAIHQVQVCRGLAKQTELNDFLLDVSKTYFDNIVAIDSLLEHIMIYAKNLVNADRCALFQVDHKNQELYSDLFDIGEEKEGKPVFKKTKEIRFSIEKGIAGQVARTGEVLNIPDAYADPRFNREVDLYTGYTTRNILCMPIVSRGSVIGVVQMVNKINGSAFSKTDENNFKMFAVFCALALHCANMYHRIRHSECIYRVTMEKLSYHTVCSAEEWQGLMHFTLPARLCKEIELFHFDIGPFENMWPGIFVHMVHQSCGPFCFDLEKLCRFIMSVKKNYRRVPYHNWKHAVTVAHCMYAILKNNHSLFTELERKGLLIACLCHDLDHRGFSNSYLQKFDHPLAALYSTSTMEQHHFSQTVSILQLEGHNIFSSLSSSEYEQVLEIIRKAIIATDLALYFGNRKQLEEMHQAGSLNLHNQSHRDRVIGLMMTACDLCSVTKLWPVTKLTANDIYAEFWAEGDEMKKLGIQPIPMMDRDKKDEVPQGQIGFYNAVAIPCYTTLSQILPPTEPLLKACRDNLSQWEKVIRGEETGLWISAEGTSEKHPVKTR

In the case of `COc1ccc2nc(C)c3c(C)nc(-c4cc(C#N)ccc4Cl)n3c2n1` [Example 25, 4-Chloro-3-(2-methoxy-6,7-dimethylimidazo[1,5-a]pyrido[3,2-e]pyrazin-9-yl)benzonitrile], the IC50 in assay [1] is 10 to 100 nM; in assay [2] (setting [9]), < 10 nM.
In the case of `CCOc1ccc(Cl)c(-c2nc(C)c3c(C)nc4ccc(OC)nc4n23)c1` [Example 26, 9-(2-Chloro-5-ethoxyphenyl)-2-methoxy-6,7-dimethylimidazo[1,5-a]pyrido[3,2-e]pyrazine], the IC50 in assay [1] and in assay [2] (setting [9]) was 10 to 100 nM throughout.
As to `COc1ccc2nc(C)c3c(C)nc(-c4cc(C)ccc4F)n3c2n1` [Example 21, 9-(2-Fluoro-5-methylphenyl)-2-methoxy-6,7-dimethylimidazo[1,5-a]pyrido[3,2-e]pyrazine], the results for the IC50 in assay [1] and in assay [2] (setting [9]) were 10 to 100 nM and < 10 nM, respectively.
In the case of `Nc1nc2c(ncn2[C@@H]2O[C@@H]3COP(=O)(O)O[C@H]3[C@H]2O)c(=O)[nH]1` [cGMP], the Km in assay [2] (Method B, pig striatum, read-out: Km-value for the substrate) was 2.2 µM; in assay [3], 1.8 µM; in assay [4], 3 µM.
For the compound `COc1ccc(Cc2nccc3cc(OC)c(OC)cc23)cc1OC` [Papaverine, papaverine], the IC50 in assay [2] (Method A, PDE10 from striatum of pig) turned out to be 103 nM; in assay [2] (Method B, PDE10 from striatum of pig, read-out: IC50) it was 110 nM; in assay [5], 77 nM. Moreover, the apomorphine-induced stereotypes result in assay [6] is “reduces apomorphine-induced stereotypes in rats”. For the same compound, the haloperidol-induced catalepsy entry in assay [7] is “increases haloperidol-induced catalepsy in rats”. The “dopamine concentration in rat brain” value in assay [8] was “reducing dopamine concentration in rat brain”.
In the case of `COc1ccc(Cl)c(-c2nc(C)c3c(C)nc4ccc(OC)nc4n23)c1` [Example 19, 9-(2-Chloro-5-methoxyphenyl)-2-methoxy-6,7-dimethylimidazo[1,5-a]pyrido[3,2-e]pyrazine], the IC50 in assay [1] was 10 to 100 nM; in assay [2] (setting [9]), < 10 nM.
The matching figures for `COc1ccc2nc(C)c3c(C)nc(-c4ccc(C(F)(F)F)cc4Cl)n3c2n1` [Example 20, 9-[2-Chloro-4-(trifluoromethyl)phenyl]-2-methoxy-6,7-dimethylimidazo[1,5-a]pyrido[3,2-e]pyrazine]: < 10 nM and < 10 nM.
On the same counts, the results for `COc1ccc2nc(C)c3c(C)nc(-c4cc(OC(F)(F)F)ccc4Cl)n3c2n1` [Example 24, 9-[2-Chloro-5-(trifluoromethoxy)phenyl]-2-methoxy-6,7-dimethylimidazo[1,5-]pyrido[3,2-e]pyrazine] are 10 to 100 nM and 10 to 100 nM.
The matching figures for `COc1ccc2nc(C)c3c(C)nc(-c4cc(C(F)(F)F)ccc4Cl)n3c2n1` [Example 23, 9-[2-Chloro-5-(trifluoromethyl)phenyl]-2-methoxy-6,7-dimethylimidazo[1,5-a]pyrido[3,2-e]pyrazine]: < 10 nM and < 10 nM.

One may read the IC50 as the midpoint of a concentration-inhibition curve. The Km is the concentration of substrate that gives half-maximal velocity.
